Measurements from PMC10108347, “Heterobifunctional Ligase Recruiters Enable pan-Degradation of Inhibitor of Apoptosis Proteins” (Journal of Medicinal Chemistry, 2023).
Several values for one entry are separate records, joined by “and”; a condition that tells them apart may be missing. Equal entries are not always repeated.

Columns and labels:
[1] = system: HEL; assay: CellTiter-Glo cell viability assay, HEL; assay type: cell-based; details: Homo sapiens, HEL, read-out: HEL
[2] = system: K562; assay: CellTiter-Glo cell viability assay, K562; assay type: cell-based; details: Homo sapiens, K562, read-out: K562
[3] = system: SUDHL6; assay: CellTiter-Glo cell viability assay, SUDHL6; assay type: cell-based; details: Homo sapiens, SU-DHL-6, read-out: SUDHL6
[4] = system: MM.1S cells proteome; assay: diaPASEF quantitative proteomics in MM.1S cells: proteome-wide degradation selectivity (other proteins); assay type: cell-based, human
Procedure: To analyze the proteome-wide degradation selectivity of hetero-PROTACs 9, 25, and 27, a diaPASEF-based mass spectrometry approach was employed.[54] MM.1S cells were treated with 100 nM PROTACs for 3 h. […] Accordingly, global proteomic plots show the mathematically imputed levels of IAP proteins in treatment groups if the corresponding IAP was detected in the control treatment (see also Experimental Section).
MM1s cells were treated with DMSO or 0.1 μM of compound for 3 h. The cells were harvested by centrifugation and washed with phosphate-buffered saline before snap-freezing in liquid nitrogen. The cells were lysed by addition of lysis buffer (8 M urea, 50 mM NaCl, 50 mM 4-(2-hydroxyethyl)-1-piperazine-ethanesulfonic acid (EPPS) pH 8.5, protease, and phosphatase inhibitors) and homogenization by bead beating (BioSpec) for three repeats of 30 s at 2400. Bradford assay was used to determine the final protein concentration in the clarified cell lysate. 50 μg of protein for each sample was reduced, alkylated, and precipitated using methanol/chloroform as previously described,[64] and the resulting washed precipitated protein was allowed to air dry. The precipitated protein was resuspended in 4 M urea, 50 mM HEPES pH 7.4, followed by dilution to 1 M urea with the addition of 200 mM EPPS, pH 8. […] The LysC digestion was diluted to 0.5 M urea with 200 mM EPPS pH 8, followed by digestion with trypsin (1:50; enzyme/protein) for 6 h at 37 °C. Sample digests were acidified with formic acid to a pH of 2–3 prior to desalting using C18 solid-phase extraction plates (SOLA, Thermo Fisher Scientific). Desalted peptides were dried in a vacuum centrifuge and reconstituted in 0.1% formic acid for LC–MS analysis.
Data were collected using a TimsTOF Pro2 (Bruker Daltonics, Bremen, Germany) coupled to a nanoElute LC pump (Bruker Daltonics, Bremen, Germany) via a CaptiveSpray nanoelectrospray source. […] Peptides were separated using a 50 min gradient of 2–30% buffer B (acetonitrile in 0.1% formic acid) with a flow rate of 250 nL/min and column temperature maintained at 50 °C.
Data-Dependent Acquisition (DDA) was performed in the Parallel Accumulation-Serial Fragmentation (PASEF) mode to determine effective ion mobility windows for downstream diaPASEF data collection.[54] The diaPASEF parameters included 100% duty cycle using accumulation and ramp times of 50 ms each, 1 TIMS-MS scan, and 10 PASEF ramps per acquisition cycle. The TIMS-MS survey scan was acquired between 100–1700 m/z and 1/K0 of 0.7–1.3 V × s/cm^2. Precursors with 1–5 charges were selected, and those that reached an intensity threshold of 20,000 arbitrary units were actively excluded for 0.4 min. The quadrupole isolation width was set to 2 m/z for m/z < 700 and 3 m/z for m/z > 800, with the m/z between 700 and 800 m/z being interpolated linearly. […] To perform diaPASEF, the precursor distribution in the DDA m/z-ion mobility plane was used to design an acquisition scheme for DIA data collection, which included two windows in each 50 ms diaPASEF scan. Data was acquired using 16 of these 25 Da precursor double window scans (creating 32 windows), which covered the diagonal scan line for doubly and triply charged precursors, with singly charged precursors able to be excluded by their position in the m/z-ion mobility plane. These precursor isolation windows were defined between 400–1200 m/z and 1/K0 of 0.7–1.3 V × s/cm^2.
The diaPASEF raw file processing and controlling peptide and protein level false discovery rates, assembling proteins from peptides, and protein quantification from peptides were performed using library-free analysis in DIA-NN 1.8.[65] The library-free mode performs an in silico digestion of a given protein sequence database alongside deep learning-based predictions to extract the DIA precursor data into a collection of MS^2 spectra.

[5] = target: XIAP (Homo sapiens, UniProt P98170); assay: Immunoblotting (western blot) quantification of XIAP levels in MM.1S cells; details: MM1.S, 16 h, read-out: %remaining protein XIAP
Sequence of XIAP (P98170 whole entry): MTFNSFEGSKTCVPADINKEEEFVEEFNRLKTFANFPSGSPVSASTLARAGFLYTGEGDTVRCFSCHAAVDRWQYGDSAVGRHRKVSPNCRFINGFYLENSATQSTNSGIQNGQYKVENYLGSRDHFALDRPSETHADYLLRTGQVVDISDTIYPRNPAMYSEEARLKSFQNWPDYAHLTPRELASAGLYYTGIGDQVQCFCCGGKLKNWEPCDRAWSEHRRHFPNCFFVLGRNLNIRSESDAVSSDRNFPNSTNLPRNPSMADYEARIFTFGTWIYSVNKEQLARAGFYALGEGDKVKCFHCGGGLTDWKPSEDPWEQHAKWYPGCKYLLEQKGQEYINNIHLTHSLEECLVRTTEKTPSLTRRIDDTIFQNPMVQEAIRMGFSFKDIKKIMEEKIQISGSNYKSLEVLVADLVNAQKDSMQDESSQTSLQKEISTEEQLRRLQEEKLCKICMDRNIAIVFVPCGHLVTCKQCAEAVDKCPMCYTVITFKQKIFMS
Procedure: (§1) To evaluate the capability of our panel of hetero-PROTACs for E3 ligase degradation, VHL19, VHL30, CRBN, cIAP1, cIAP2, and XIAP levels were quantified by western blot analyses. […] SDS-PAGE was performed, and proteins were then transferred onto PVDF membranes. Blotted membranes were blocked with 5% milk in Tris-buffered saline/Tween20 (TBST). Primary antibodies were diluted in 5% BSA in TBST, and incubations were performed overnight at 4 °C. Secondary HRP-conjugated antibodies diluted in 5% milk were incubated for 1 h at room temperature. Detection of proteins on PVDF was carried out using the WesternBright ECL HRP substrate or the WesternBright Sirius HRP substrate (Advansta, San Jose, USA) and imaged with LAS 4000× (Fujifilm). Membranes were subjected to 10 min incubation with Restore Western Blot Stripping Buffer (Thermo Fisher Scientific, Waltham, USA), followed by TBST washes. After brief re-activation with methanol, the membranes were blocked, and further probing of proteins was carried out.
(§2) Quantification of blots was performed using ImageJ software (National Institutes of Health).

[6] = target: cIAP1 (Homo sapiens, UniProt Q13490); assay: Immunoblotting (western blot) quantification of cIAP1 levels in MM.1S cells; details: MM1.S, 16 h, read-out: %remaining protein cIAP1
Sequence of cIAP1 (Q13490 whole entry): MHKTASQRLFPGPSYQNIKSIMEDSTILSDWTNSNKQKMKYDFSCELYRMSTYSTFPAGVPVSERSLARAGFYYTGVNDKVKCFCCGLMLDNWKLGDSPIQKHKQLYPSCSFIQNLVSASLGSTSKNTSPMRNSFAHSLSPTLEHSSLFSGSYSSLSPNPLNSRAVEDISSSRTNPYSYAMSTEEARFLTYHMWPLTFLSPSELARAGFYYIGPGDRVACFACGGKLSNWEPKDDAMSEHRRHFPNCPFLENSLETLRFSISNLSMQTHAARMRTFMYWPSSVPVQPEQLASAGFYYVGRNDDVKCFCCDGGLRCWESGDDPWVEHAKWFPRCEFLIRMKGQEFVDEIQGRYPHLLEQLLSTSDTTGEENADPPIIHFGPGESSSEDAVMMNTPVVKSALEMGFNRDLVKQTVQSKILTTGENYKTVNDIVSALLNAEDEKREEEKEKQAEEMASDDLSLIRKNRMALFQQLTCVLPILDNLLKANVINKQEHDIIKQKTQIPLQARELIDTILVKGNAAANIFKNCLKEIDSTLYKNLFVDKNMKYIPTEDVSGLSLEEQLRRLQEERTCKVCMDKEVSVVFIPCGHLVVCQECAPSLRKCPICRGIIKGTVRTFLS

[7] = target: cIAP2 (Homo sapiens, UniProt Q13489); assay: Immunoblotting (western blot) quantification of cIAP2 levels in MM.1S cells; details: MM1.S, 16 h, read-out: %remaining protein cIAP2
Sequence of cIAP2 (Q13489 whole entry): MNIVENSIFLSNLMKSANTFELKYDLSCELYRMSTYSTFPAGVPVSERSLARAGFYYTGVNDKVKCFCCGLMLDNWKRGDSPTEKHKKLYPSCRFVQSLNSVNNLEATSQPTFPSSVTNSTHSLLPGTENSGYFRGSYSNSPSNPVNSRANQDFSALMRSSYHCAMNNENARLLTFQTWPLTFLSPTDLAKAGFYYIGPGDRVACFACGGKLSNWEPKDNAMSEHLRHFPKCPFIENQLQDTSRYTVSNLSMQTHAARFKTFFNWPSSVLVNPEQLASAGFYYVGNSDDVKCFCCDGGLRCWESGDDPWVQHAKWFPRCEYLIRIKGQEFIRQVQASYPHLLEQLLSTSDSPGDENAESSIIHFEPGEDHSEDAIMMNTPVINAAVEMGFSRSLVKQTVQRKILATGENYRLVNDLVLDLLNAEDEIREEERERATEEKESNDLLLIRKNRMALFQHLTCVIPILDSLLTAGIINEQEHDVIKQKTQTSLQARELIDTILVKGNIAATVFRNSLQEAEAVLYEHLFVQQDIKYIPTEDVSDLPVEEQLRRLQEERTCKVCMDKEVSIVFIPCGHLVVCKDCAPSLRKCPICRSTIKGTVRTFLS
Procedure: as §1, §2

[8] = MM.1S cells, 0.1 μM, 3 h, log2 fold change compound vs CTRLs (limma)

CN[C@@H](C)C(=O)N[C@H](C(=O)N1C[C@@H](Oc2cccc(OCCOCCCCCCOCCCCCCNc3cccc4c3C(=O)N(C3CCC(=O)NC3=O)C4=O)c2)C[C@H]1C(=O)N[C@@H]1CCCc2ccccc21)C1CCCCC1 (stereo partly drawn) [PROTAC 25, (2S,4S)-1-((S)-2-Cyclohexyl-2-((S)-2-(methylamino)propanamido)acetyl)-4-(3-(2-((6-((6-((2-(2,6-dioxopiperidin-3-yl)-1,3-dioxoisoindolin-4-yl)amino)hexyl)oxy)hexyl)oxy)ethoxy)phenoxy)-N-((R)-1,2,3,4-tetrahydronaphthalen-1-yl)pyrrolidine-2-carboxamide]
IC50 [1]: 300 nM | IC50 [2]: 380 nM | IC50 [3]: 14 nM | Precursor intensity (DIA-NN), CLPX precursor AAAAADLANR2 ([4]; CLPX_HUMAN (O76031), ATP-dependent Clp protease ATP-binding subunit clpX-like, mitochondrial, precursor charge 2, per-replicate values (rep1, rep2), listed as SAB141): 7987.33 and 21462.9 | logFC COX5A [4, 8]: -0.5474 | logFC LMAN2 [4, 8]: -0.1147 | logFC TOP1 [4, 8]: 0.3058 | Precursor intensity (DIA-NN), RPL4 precursor […]1 ([4]; RL4_HUMAN (P36578), 60S ribosomal protein L4, precursor charge 1, per-replicate values (rep1, rep2)): 321.394 | Precursor intensity (DIA-NN), RPL4 precursor […]2 ([4]; RL4_HUMAN (P36578), 60S ribosomal protein L4, precursor charge 2, per-replicate values (rep1, rep2), listed as SAB141): 467864 and 464908 | Precursor intensity (DIA-NN), SAMD1 precursor AAAAAATAPPSPGPAQPGPR2 ([4]; SAMD1_HUMAN (Q6SPF0), Atherin, precursor charge 2, per-replicate values (rep1, rep2), listed as SAB141): 14133.9 and 10400.6 | Precursor intensity (DIA-NN), ZFP91 precursor AAAAAAAAAVSR2 ([4]; ZFP91_HUMAN (Q96JP5), E3 ubiquitin-protein ligase ZFP91, precursor charge 2, per-replicate values (rep1, rep2), listed as SAB141): 72214.7 and 61349 | remaining activity at 0.1 µM [5]: 2% | remaining activity at 0.1 µM [6]: 5% | remaining activity at 0.1 µM [7]: 8%
